Read-outs that look alike come from different tables or passages of the source.
Tests used:
IMP-1 = IMP-1 (Serratia marcescens, UniProt P52699); assay: biochemical; type: biochemical; conditions: read-out: IMP-1 IC50
[1] = tested on: Escherichia coli expressing NDM-1 (CLB30005); assay: Antibiotic potentiation activity: synergistic concentration (MITC95) with imipenem, OD600 growth; type: cell-based; conditions: for Escherichia coli expressing NDM-1 (CLB 30005) MITC95: concentration giving 95% inhibition of bacterial growth; for Escherichia coli MITC95: Escherichia coli expressing NDM-1 (CLB30005), 95% growth inhibition
Outline: (§1)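 Growth after 22–24 h at 35 °C is measured spectrophotometrically for bacteria incubated with compound plus imipenem (4 μg/ml in-well, or 1 μg/ml). Cells come from overnight agar colonies resuspended in saline and diluted 1:100 in 1.1× CAMHB.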

[2] = tested on: Serratia marcescens expressing IMP-1 (CL5741); assay: as above; type: cell-based; conditions: for Serratia marcescens expressing IMP-1 (CL5741) MITC95: concentration giving 95% inhibition of bacterial growth; for Serratia marcescens MITC95: Serratia marcescens expressing IMP-1 (CL5741), 95% growth inhibition
Outline: as §1

[3] = tested on: Klebsiella pneumoniae expressing VIM-1 (IHMA599644); assay: as above; type: cell-based; conditions: for Klebsiella pneumoniae expressing VIM-1 (IHMA 599644) MITC95: concentration giving 95% inhibition of bacterial growth; for Klebsiella pneumoniae MITC95: Klebsiella pneumoniae expressing VIM-1 (IHMA599644), 95% growth inhibition
Outline: as §1

NDM-1 = NDM-1 (Klebsiella pneumoniae, UniProt C7C422); assay: biochemical; type: biochemical; conditions: read-out: NDM-1 IC50
Chain of NDM-1 (C7C422 whole entry, looked up, species assumed): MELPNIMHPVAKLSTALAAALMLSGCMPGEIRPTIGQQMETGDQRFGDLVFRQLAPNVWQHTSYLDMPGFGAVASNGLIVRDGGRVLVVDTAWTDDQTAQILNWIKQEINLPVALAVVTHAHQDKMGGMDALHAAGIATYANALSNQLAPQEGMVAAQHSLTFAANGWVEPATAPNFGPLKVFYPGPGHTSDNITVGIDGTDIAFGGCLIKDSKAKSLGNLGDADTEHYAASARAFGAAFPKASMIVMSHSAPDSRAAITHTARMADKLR

VIM-1 = VIM-1 (Pseudomonas aeruginosa (strain ATCC 15692 / DSM 22644 / CIP 104116 / JCM 14847 / LMG 12228 / 1C / PRS 101 / PAO1), UniProt A0A0F7KYQ8); assay: Enzyme activity: determination of IC50, fluorescence assay with CCF2-FA substrate (VIM-1); type: biochemical
[4] = fluorescence assay with CCF2-FA substrate
[5] = fluorescence assay with CCF2-FA substrate, read-out: VIM-1 IC50
[6] = VIM-1 IC50, fluorescence assay with CCF2-FA substrate
[7] = IMP-1 enzyme, CCF2-FA fluorescence assay
[8] = NDM-1 enzyme, CCF2-FA fluorescence assay
[9] = VIM-1 enzyme, CCF2-FA fluorescence assay, read-out: VIM-1 IC50

Chain of IMP-1 (P52699 whole entry, looked up): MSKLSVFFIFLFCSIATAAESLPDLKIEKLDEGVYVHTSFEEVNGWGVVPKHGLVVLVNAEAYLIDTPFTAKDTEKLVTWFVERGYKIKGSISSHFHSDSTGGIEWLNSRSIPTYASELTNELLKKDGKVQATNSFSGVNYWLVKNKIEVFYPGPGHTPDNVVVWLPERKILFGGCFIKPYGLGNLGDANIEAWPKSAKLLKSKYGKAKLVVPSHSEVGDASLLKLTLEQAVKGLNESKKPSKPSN

| Structure (SMILES) | IC50 (IMP-1; [4]) | Escherichia coli expressing NDM-1 (CLB 30005) MITC95 [1] | Serratia marcescens expressing IMP-1 (CL5741) MITC95 [2] | Klebsiella pneumoniae expressing VIM-1 (IHMA 599644) MITC95 [3] | IC50 (NDM-1; [4]) | IC50 (VIM-1; [5]) | IC50 (VIM-1; [6]) | IC50 (IMP-1; [7]) | Escherichia coli MITC95 [1] | Serratia marcescens MITC95 [2] | Klebsiella pneumoniae MITC95 [3] | IC50 (NDM-1; [8]) | IC50 (VIM-1; [9]) |
| --- | --- | --- | --- | --- | --- | --- | --- | --- | --- | --- | --- | --- | --- |
| Cn1nccc1-c1cccc(S(N)(=O)=O)c1-c1nn[nH]n1 [Example 49, 3-(1-methyl-1H-pyrazol-5-yl)-2-(2H-tetrazol-5-yl)benzenesulfonamide] | 4050 nM | 0.5859 µM | 150 µM | 12.5 µM | 21.6 nM | 61.7 nM |  |  |  |  |  |  |  |
| CN1CCC=C(c2cccc(S(N)(=O)=O)c2-c2nn[nH]n2)C1 [Example 65, 3-(1-methyl-1,2,5,6-tetrahydropyridin-3-yl)-2-(2H-tetrazol-5-yl)benzenesulfonamide] | 20000 nM | 4.688 µM | >200 µM | >200 µM | 905 nM | 4990 nM |  |  |  |  |  |  |  |
| NS(=O)(=O)c1cccc(-c2ccnn2Cc2ccccc2)c1-c1nn[nH]n1 [Example 95, 3-(1-benzyl-1H-pyrazol-5-yl)-2-(2H-tetrazol-5-yl)benzenesulfonamide] | 534 nM | 3.906 µM | 106.3 µM | >200 µM | 1.51 nM |  | 375 nM |  |  |  |  |  |  |
| CS(=O)(=O)c1ccc(-c2cccc(S(N)(=O)=O)c2-c2nn[nH]n2)cc1 [Example 16, 4′-(methylsulfonyl)-2-(2H-tetrazol-5-yl)biphenyl-3-sulfonamide] | 85.5 nM | 1.172 µM | 25 µM | 75 µM | 10.5 nM |  | 67.1 nM |  |  |  |  |  |  |
| NS(=O)(=O)c1nccc(-c2ccc(C3CCNC3)cc2)c1-c1nnn[nH]1 (stereo not drawn) [Example 198, 4-(4-(pyrrolidin-3-yl)phenyl)-3-(1H-tetrazol-5-yl)pyridine-2-sulfonamide] | 1170 nM | 0.3906 µM | 3.125 µM | 2.344 µM | 68.4 nM | 101 nM |  |  |  |  |  |  |  |
| Cc1ccc(-c2cccc(S(N)(=O)=O)c2-c2nnn[nH]2)nc1 [Example 398, 3-(5-Methylpyridin-2-yl)-2-(1H-tetrazol-5-yl)benzenesulfonamide] |  |  |  |  |  |  |  | 1210 nM | 1.563 µM | 50 µM | 100 µM | 43 nM | 312 nM |
| COC(=O)N1CCC(c2ccc(-c3cccc(S(N)(=O)=O)c3-c3nnn[nH]3)cc2)CC1 [Example 28, methyl 4-[3′-sulfamoyl-2′-(1H-tetrazol-5-yl)biphenyl-4-yl]piperidine-1-carboxylate] | 3.74 nM | 12.5 µM | 12.5 µM | >200 µM | 0.972 nM | 26.7 nM |  |  |  |  |  |  |  |
| CS(=O)(=O)Nc1cccc(-c2cccc(S(N)(=O)=O)c2-c2nn[nH]n2)c1 [Example 86, 3′-[(methylsulfonyl)amino]-2-(2H-tetrazol-5-yl)biphenyl-3-sulfonamide] | 67.4 nM | 0.7813 µM | 3.125 µM | 200 µM | 11 nM | 1070 nM |  |  |  |  |  |  |  |
| NS(=O)(=O)c1cccc(-c2cnn(Cc3ccccn3)c2)c1-c1nn[nH]n1 [Example 101, 3-[1-(pyridin-2-ylmethyl)-1H-pyrazol-4-yl]-2-(2H-tetrazol-5-yl)benzenesulfonamide] | 517 nM | 3.906 µM | 14.06 µM | 125 µM | 40.9 nM | 111 nM |  |  |  |  |  |  |  |
| NS(=O)(=O)c1cccc(-c2ccc(C(=O)NCCO)cc2)c1-c1nn[nH]n1 [Example 17, N-(2-hydroxyethyl)-3′-sulfamoyl-2′-(2H-tetrazol-5-yl)biphenyl-4-carboxamide] | 87.5 nM | 0.7813 µM | 53.13 µM | 100 µM | 8.57 nM | 209 nM |  |  |  |  |  |  |  |
| NS(=O)(=O)c1cccc(-c2ccccc2)c1-c1nn[nH]n1 [Example 14, 2-(2H-tetrazol-5-yl)biphenyl-3-sulfonamide] | 172 nM | 0.3906 µM | 6.25 µM | 100 µM | 5.19 nM | 108 nM |  |  |  |  |  |  |  |
| NCCc1ccc(-c2cccc(S(N)(=O)=O)c2-c2nnn[nH]2)cn1 [Example 307, 3-(6-(2-aminoethyl)pyridin-3-yl)-2-(1H-tetrazol-5-yl)benzenesulfonamide] |  |  |  |  |  |  |  | 4890 nM | 1.172 µM | 50 µM | 12.5 µM | 174 nM | 96.2 nM |
| NS(=O)(=O)c1cccc(-c2ccc(-n3nccn3)cc2)c1-c1nn[nH]n1 [Example 5, 2-(2H-tetrazol-5-yl)-4′-(2H-1,2,3-triazol-2-yl)biphenyl-3-sulfonamide] | 72.3 nM | 0.7813 µM | 12.5 µM | >200 µM | 3.44 nM | 56.5 nM |  |  |  |  |  |  |  |
| NS(=O)(=O)c1nccc(-c2ccc(CO)nc2)c1-c1nnn[nH]1 [Example 195, 6-(hydroxymethyl)-3′-(1H-tetrazol-5-yl)-[3,4′-bipyridine]-2′-sulfonamide] | 2630 nM | 0.3906 µM | 50 µM | 12.5 µM | 78.5 nM | 291 nM |  |  |  |  |  |  |  |
| CCCc1ccc(-c2cccc(S(N)(=O)=O)c2-c2nnn[nH]2)cn1 [Example 302, 3-(6-propylpyridin-3-yl)-2-(1H-tetrazol-5-yl)benzenesulfonamide] |  |  |  |  |  |  |  | 110 nM | 0.3906 µM | 3.906 µM | 150 µM | 5.85 nM | 38.5 nM |
| NS(=O)(=O)c1cccc(-c2cnc(N3CCOCC3)nc2)c1-c1nn[nH]n1 [Example 94, 3-(2-morpholin-4-ylpyrimidin-5-yl)-2-(2H-tetrazol-5-yl)benzenesulfonamide] | 164 nM | 2.344 µM | 12.5 µM | 100 µM | 6.32 nM | 234 nM |  |  |  |  |  |  |  |
| NCCc1ccc(-c2cccc(S(N)(=O)=O)c2-c2nnn[nH]2)cc1 [Example 300, 4′-(2-aminoethyl)-2-(1H-tetrazol-5-yl)-[1,1′-biphenyl]-3-sulfonamide] |  |  |  |  |  |  |  | 373 nM | 1.172 µM | 12.5 µM | 9.375 µM | 37.2 nM | 31.5 nM |
| CCCc1ccc(-c2ccc(C3CCNCC3)cc2)c(-c2nnn[nH]2)c1S(N)(=O)=O [Example 260, 4′-(Piperidin-4-yl)-4-propyl-2-(1H-tetrazol-5-yl)-[1,1′-biphenyl]-3-sulfonamide] |  |  |  |  |  |  |  | 6.72 nM | 6.25 µM | 1.563 µM | 6.25 µM | 11.2 nM | 0.797 nM |

From patent US9708336B2, “Metallo-beta-lactamase inhibitors” (priority 2014, dated 2017)
